Like-named read-outs stand apart in the source and are kept apart here.
Key:
M14 = experiment: NCI-60 cell line screen (SRB), M14; format: cell-based, human
Description: (§1) Drug sensitivity data are provided as GI50s (concentrations required to inhibit growth by 50%). The first row of the text file identifies cell lines, separated by tabs. Subsequent rows contain compound number, compound name, and GI50 for each cell line, each separated by a tab. […] For a typical screening experiment, cells are inoculated into 96 well microtiter plates in 100 μL at plating densities ranging from 5,000 to 40,000 cells/well depending on the doubling time of individual cell lines. After cell inoculation, the microtiter plates are incubated at 37° C., 5% CO2, 95% air and 100% relative humidity for 24 h prior to addition of experimental drugs. After 24 h, two plates of each cell line are fixed in situ with TCA, to represent a measurement of the cell population for each cell line at the time of drug addition (Tz). Experimental drugs are solubilized in dimethyl sulfoxide at 400-fold the desired final maximum test concentration and stored frozen prior to use. At the time of drug addition, an aliquot of frozen concentrate is thawed and diluted to twice the desired final maximum test concentration with complete medium containing 50 μg/ml gentamicin. Additional four, 10-fold or one-half log serial dilutions are made to provide a total of five drug concentrations plus control. Aliquots of 100 μl of these different drug dilutions are added to the appropriate microtiter wells already containing 100 μl of medium, resulting in the required final drug concentrations. Following drug addition, the plates are incubated for an additional 48 h at 37° C., 5% CO2, 95% air, and 100% relative humidity. For adherent cells, the assay is terminated by the addition of cold TCA. Cells are fixed in situ by the gentle addition of 50 μl of cold 50% (w/v) TCA (final concentration, 10% TCA) and incubated for 60 minutes at 4° C. The supernatant is discarded, and the plates are washed five times with tap water and air dried. Sulforhodamine B (SRB) solution (100 μl) at 0.4% (w/v) in 1% acetic acid is added to each well, and plates are incubated for 10 minutes at room temperature. After staining, unbound dye is removed by washing five times with 1% acetic acid and the plates are air dried. Bound stain is subsequently solubilized with 10 mM trizma base, and the absorbance is read on an automated plate reader at a wavelength of 515 nm. For suspension cells, the methodology is the same except that the assay is terminated by fixing settled cells at the bottom of the wells by gently adding 50 μl of 80% TCA (final concentration, 16% TCA). Using the seven absorbance measurements [time zero, (Tz), control growth, (C), and test growth in the presence of drug at the five concentration levels (Ti)], the percentage growth is calculated at each of the drug concentrations levels. […]

NCI-H460 = experiment: NCI-60 cell line screen (SRB), NCI-H460; format: cell-based, human
Description: as §1

TK-10 = experiment: NCI-60 cell line screen (SRB), TK-10; format: cell-based, human
Description: as §1

KM12 = experiment: NCI-60 cell line screen (SRB), KM12; format: cell-based, human
Description: as §1

UO-31 = experiment: NCI-60 cell line screen (SRB), UO-31; format: cell-based, human
Description: as §1

RPMI-8226 = experiment: NCI-60 cell line screen (SRB), RPMI-8226; format: cell-based, human
Description: as §1

SK-MEL-2 = experiment: NCI-60 cell line screen (SRB), SK-MEL-2; format: cell-based, human
Description: as §1

ACHN = experiment: NCI-60 cell line screen (SRB), ACHN; format: cell-based, human
Description: as §1

HL-60(TB) = experiment: NCI-60 cell line screen (SRB), HL-60(TB); format: cell-based, human
Description: as §1

[1] = system: Ovarian Cancer cell lines; experiment: NCI-60 cell line screen, Ovarian Cancer panel average; format: cell-based, human; conditions: read-out: GI50 Average
Description: as §1

A-498 = experiment: NCI-60 cell line screen (SRB), A-498; format: cell-based, human
Description: as §1

PC-3 = experiment: NCI-60 cell line screen (SRB), PC-3; format: cell-based, human
Description: as §1

UACC-257 = experiment: NCI-60 cell line screen (SRB), UACC-257; format: cell-based, human
Description: as §1

OVCAR-4 = experiment: NCI-60 cell line screen (SRB), OVCAR-4; format: cell-based, human
Description: as §1

SK-OV-3 = experiment: NCI-60 cell line screen (SRB), SK-OV-3; format: cell-based, human
Description: as §1

786-0 = experiment: NCI-60 cell line screen (SRB), 786-0; format: cell-based, human
Description: as §1

CCRF-CEM = experiment: NCI-60 cell line screen (SRB), CCRF-CEM; format: cell-based, human
Description: as §1

LOX IMVI = experiment: NCI-60 cell line screen (SRB), LOX IMVI; format: cell-based, human
Description: as §1

SN12C = experiment: NCI-60 cell line screen (SRB), SN12C; format: cell-based, human
Description: as §1

[2] = target: EZH2 (Enhancer of Zeste Homologue 2), a Histone H3 Lys 27 (H3K27) methyltransferase (Homo sapiens, UniProt Q15910); experiment: OIDD in vitro target-based assay, EZH2 inhibitory activity; format: biochemical; conditions: OIDD screen; FIG. 1
Description: An organosilicon compound of the invention (GH1503) was tested using the in vitro target-based assays through an open innovation drug discovery program (OIDD). The organosilicon compound tested was given OIDD number 2351349879. […] This enzyme plays a critical role in regulating gene expression and is highly expressed in a wide range of cancer types, including bladder, breast, colon, lung, melanoma, pancreatic cancer, melanoma, sarcoma and lymphomas.

[3] = Homo sapiens, Renal Cancer, 48 h drug incubation, read-out: GI50
[4] = Renal Cancer, 48 h drug incubation, read-out: GI50

Chain of EZH2 (Enhancer of Zeste Homologue 2), a Histone H3 Lys 27 (H3K27) methyltransferase (Q15910 whole entry): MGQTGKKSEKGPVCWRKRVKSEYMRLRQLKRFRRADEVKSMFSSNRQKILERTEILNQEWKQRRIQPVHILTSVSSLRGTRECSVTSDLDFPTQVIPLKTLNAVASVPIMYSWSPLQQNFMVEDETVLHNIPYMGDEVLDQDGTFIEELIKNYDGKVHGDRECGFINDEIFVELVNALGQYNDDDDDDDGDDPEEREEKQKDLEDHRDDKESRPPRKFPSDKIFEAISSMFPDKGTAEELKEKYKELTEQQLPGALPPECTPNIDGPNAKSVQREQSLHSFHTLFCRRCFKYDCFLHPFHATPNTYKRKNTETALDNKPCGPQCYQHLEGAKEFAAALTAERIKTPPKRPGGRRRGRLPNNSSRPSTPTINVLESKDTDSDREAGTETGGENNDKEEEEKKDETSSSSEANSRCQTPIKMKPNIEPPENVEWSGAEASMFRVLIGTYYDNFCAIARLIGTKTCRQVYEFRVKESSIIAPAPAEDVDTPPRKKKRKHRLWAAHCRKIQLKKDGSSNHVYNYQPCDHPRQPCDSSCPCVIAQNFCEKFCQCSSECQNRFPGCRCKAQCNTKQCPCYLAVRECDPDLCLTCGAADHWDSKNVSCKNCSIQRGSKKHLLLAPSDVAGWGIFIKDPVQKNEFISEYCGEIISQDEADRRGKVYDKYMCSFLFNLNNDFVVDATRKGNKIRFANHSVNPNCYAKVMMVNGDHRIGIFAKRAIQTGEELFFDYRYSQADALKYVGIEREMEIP
Chain of EZH2 (Enhancer of Zeste Homologue 2), a Histone H3 Lys 27 (H3K27) methyltransferase (O75530 whole entry partner): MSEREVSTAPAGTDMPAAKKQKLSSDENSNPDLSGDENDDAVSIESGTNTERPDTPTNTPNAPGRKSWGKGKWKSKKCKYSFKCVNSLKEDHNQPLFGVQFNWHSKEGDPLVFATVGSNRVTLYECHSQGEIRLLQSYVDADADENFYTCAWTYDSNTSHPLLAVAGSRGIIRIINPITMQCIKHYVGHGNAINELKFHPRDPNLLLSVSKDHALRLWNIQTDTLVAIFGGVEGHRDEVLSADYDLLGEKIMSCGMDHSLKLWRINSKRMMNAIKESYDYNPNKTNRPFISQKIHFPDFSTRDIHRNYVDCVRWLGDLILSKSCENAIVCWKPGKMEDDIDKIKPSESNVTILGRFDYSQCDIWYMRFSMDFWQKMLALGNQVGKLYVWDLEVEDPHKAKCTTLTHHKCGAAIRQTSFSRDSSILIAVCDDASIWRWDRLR
Chain of EZH2 (Enhancer of Zeste Homologue 2), a Histone H3 Lys 27 (H3K27) methyltransferase (Q15022 whole entry partner): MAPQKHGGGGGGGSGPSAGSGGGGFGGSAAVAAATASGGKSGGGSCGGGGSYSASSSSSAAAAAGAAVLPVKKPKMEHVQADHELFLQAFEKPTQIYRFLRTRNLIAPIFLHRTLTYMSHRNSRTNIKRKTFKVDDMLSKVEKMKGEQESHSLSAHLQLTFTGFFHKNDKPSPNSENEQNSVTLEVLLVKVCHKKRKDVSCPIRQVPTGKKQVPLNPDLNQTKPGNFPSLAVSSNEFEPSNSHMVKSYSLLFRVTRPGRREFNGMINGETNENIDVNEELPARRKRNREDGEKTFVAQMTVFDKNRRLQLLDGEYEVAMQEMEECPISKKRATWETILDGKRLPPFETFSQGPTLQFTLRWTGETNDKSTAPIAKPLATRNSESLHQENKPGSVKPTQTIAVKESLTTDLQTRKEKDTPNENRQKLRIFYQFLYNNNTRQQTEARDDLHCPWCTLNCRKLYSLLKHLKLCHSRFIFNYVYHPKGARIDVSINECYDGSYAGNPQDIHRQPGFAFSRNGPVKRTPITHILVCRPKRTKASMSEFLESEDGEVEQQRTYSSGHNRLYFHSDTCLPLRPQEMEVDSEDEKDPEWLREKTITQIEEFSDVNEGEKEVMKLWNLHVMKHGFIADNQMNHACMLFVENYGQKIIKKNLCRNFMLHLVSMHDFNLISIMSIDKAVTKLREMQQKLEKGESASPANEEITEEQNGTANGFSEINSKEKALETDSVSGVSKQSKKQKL

## CC1(C)CC(NC(=O)[C@H](Cc2ccc(OCc3c(Cl)cccc3Cl)cc2)NC(=O)c2ccc(OCCC[Si](C)(C)C)cc2)CC(C)(C)N1 [GH1501, N^α-{4-[3-(trimethylsilyl)propoxy]-benzoyl}-N-(2,2,6,6-tetramethylpiperidin-4-yl)-[O-(2,6-dichlorobenzyl)-L-tyrosinamide]]
M14; Homo sapiens, M14, 48 h
  GI50: 341 nM
NCI-H460; Homo sapiens, NCI-H460, 48 h
  GI50: 253 nM
TK-10; Homo sapiens, TK-10, 48 h
  GI50: 1850 nM
KM12; Homo sapiens, KM12, 48 h
  GI50: 363 nM
UO-31; Homo sapiens, UO-31, 48 h
  GI50: 1520 nM
RPMI-8226; Homo sapiens, RPMI-8226, 48 h
  GI50: 1320 nM
SK-MEL-2; Homo sapiens, SK-MEL-2, 48 h
  GI50: 1770 nM
ACHN; Homo sapiens, 48 h
  GI50: 1320 nM
HL-60(TB); Homo sapiens, HL-60, 48 h
  GI50: 813 nM
[1]; Homo sapiens
  GI50: 1370 nM
A-498; Homo sapiens, A498, 48 h
  GI50: 1750 nM
PC-3; Homo sapiens, PC-3, 48 h
  GI50: 1320 nM
UACC-257; Homo sapiens, UACC-257, 48 h
  GI50: 1880 nM
OVCAR-4; Homo sapiens, OVCAR-4, 48 h
  GI50: 1620 nM
SK-OV-3; Homo sapiens, SK-OV-3, 48 h
  GI50: 2080 nM
786-0; Homo sapiens, 786-0, 48 h
  GI50: 369 nM
CCRF-CEM; Homo sapiens, 48 h
  GI50: 1200 nM
LOX IMVI; Homo sapiens, 48 h
  GI50: 197 nM
SN12C; Homo sapiens, 48 h
  GI50: 564 nM

## CCCC[Si](C)(C)COc1ccc(C(=O)N[C@@H](Cc2ccc(OCc3c(Cl)cccc3Cl)cc2)C(=O)NC2CC(C)(C)NC(C)(C)C2)cc1 [GH1503, N^α-{4-[(butyldimethylsilyl)methoxy]-benzoyl}-N-(2,2,6,6-tetramethylpiperidin-4-yl)-[O-(2,6-dichlorobenzyl)-L-tyrosinamide]]
M14; Homo sapiens, Melanoma, M14, 48 h drug incubation, read-out: GI50
  GI50: 334 nM
NCI-H460; Homo sapiens, Non-Small Cell Lung Cancer, NCI-H460, 48 h drug incubation, read-out: GI50
  GI50: 259 nM
TK-10; Homo sapiens, Renal Cancer, TK-10, 48 h drug incubation, read-out: GI50
  GI50: 1890 nM
KM12; Homo sapiens, Colon Cancer, KM12, 48 h drug incubation, read-out: GI50
  GI50: 382 nM
UO-31; Homo sapiens, Renal Cancer, UO-31, 48 h drug incubation, read-out: GI50
  GI50: 1500 nM
RPMI-8226; Homo sapiens, Leukemia, RPMI-8226, 48 h drug incubation, read-out: GI50
  GI50: 893 nM
SK-MEL-2; Homo sapiens, Melanoma, SK-MEL-2, 48 h drug incubation, read-out: GI50
  GI50: 1560 nM
ACHN; [3]
  GI50: 478 nM
HL-60(TB); Homo sapiens, Leukemia, HL-60(TB), 48 h drug incubation, read-out: GI50
  GI50: 790 nM
[2]
  IC50: in the micromolar range
[1]; Homo sapiens, average over Ovarian Cancer panel
  GI50: 1050 nM
A-498; Homo sapiens, A498, Renal Cancer, A-498, 48 h drug incubation, read-out: GI50
  GI50: 1950 nM
PC-3; Homo sapiens, Prostate Cancer, PC-3, 48 h drug incubation, read-out: GI50
  GI50: 490 nM
UACC-257; Homo sapiens, Melanoma, UACC-257, 48 h drug incubation, read-out: GI50
  GI50: 1870 nM
OVCAR-4; Homo sapiens, Ovarian Cancer, OVCAR-4, 48 h drug incubation, read-out: GI50
  GI50: 711 nM
SK-OV-3; Homo sapiens, Ovarian Cancer, SK-OV-3, 48 h drug incubation, read-out: GI50
  GI50: 2030 nM
786-0; Homo sapiens, Renal Cancer, 786-0, 48 h drug incubation, read-out: GI50
  GI50: 468 nM
CCRF-CEM; Homo sapiens, Leukemia, 48 h drug incubation, read-out: GI50
  GI50: 531 nM
LOX IMVI; Homo sapiens, Melanoma, 48 h drug incubation, read-out: GI50
  GI50: 191 nM
SN12C; [3]
  GI50: 613 nM

## CCCC[Si](C)(C)COc1ccc(C(=O)N[C@@H](Cc2ccc(-c3ccccc3)cc2)C(=O)NC2CC(C)(C)NC(C)(C)C2)cc1 [GH1504, N^α-{4-[(butyldimethylsilyl)methoxy]-benzoyl}-N-(2,2,6,6-tetramethylpiperidin-4-yl)-(4-phenyl-L-phenylalaninamide)]
M14; Homo sapiens, M14, 48 h
  GI50: 286 nM
NCI-H460; Homo sapiens, NCI-H460, 48 h
  GI50: 348 nM
TK-10; Homo sapiens, TK-10, 48 h
  GI50: 1110 nM
KM12; Homo sapiens, KM12, 48 h
  GI50: 376 nM
UO-31; Homo sapiens, UO-31, 48 h
  GI50: 1550 nM
RPMI-8226; Homo sapiens, RPMI-8226, 48 h
  GI50: 1950 nM
SK-MEL-2; Homo sapiens, SK-MEL-2, 48 h
  GI50: 944 nM
ACHN; Homo sapiens, 48 h
  GI50: 402 nM
HL-60(TB); Homo sapiens, HL-60, 48 h
  GI50: 1220 nM
[1]; Homo sapiens
  GI50: 1150 nM
A-498; Homo sapiens, A498, 48 h
  GI50: 1950 nM
PC-3; Homo sapiens, PC-3, 48 h
  GI50: 1300 nM
UACC-257; Homo sapiens, UACC-257, 48 h
  GI50: 1780 nM
OVCAR-4; Homo sapiens, OVCAR-4, 48 h
  GI50: 521 nM
SK-OV-3; Homo sapiens, SK-OV-3, 48 h
  GI50: 2120 nM
786-0; Homo sapiens, 786-0, 48 h
  GI50: 780 nM
CCRF-CEM; Homo sapiens, 48 h
  GI50: 1500 nM
LOX IMVI; Homo sapiens, 48 h
  GI50: 207 nM
SN12C; Homo sapiens, 48 h
  GI50: 526 nM

## CCOP(=O)(OCC)C(NC(=O)[C@H](Cc1ccc(-c2ccccc2)cc1)NC(=O)c1ccc(OCCC[Si](C)(C)C)cc1)P(=O)(OCC)OCC [GH1505, N^α-{4-[3-(trimethylsilyl)propoxy]-benzoyl}-N-[bis(dietoxyphosphoryl)methyl]-(4-phenyl-L-phenylalaninamide)]
M14; Melanoma, M14, 48 h drug incubation, read-out: GI50
  GI50: 2100 nM
NCI-H460; Non-Small Cell Lung Cancer, NCI-H460, 48 h drug incubation, read-out: GI50
  GI50: 1970 nM
TK-10; Renal Cancer, TK-10, 48 h drug incubation, read-out: GI50
  GI50: 2500 nM
KM12; Colon Cancer, KM12, 48 h drug incubation, read-out: GI50
  GI50: 2610 nM
UO-31; Renal Cancer, UO-31, 48 h drug incubation, read-out: GI50
  GI50: 2770 nM
RPMI-8226; Leukemia, RPMI-8226, 48 h drug incubation, read-out: GI50
  GI50: 1970 nM
SK-MEL-2; Melanoma, SK-MEL-2, 48 h drug incubation, read-out: GI50
  GI50: 2110 nM
ACHN; [4]
  GI50: 2270 nM
HL-60(TB); Leukemia, HL-60(TB), 48 h drug incubation, read-out: GI50
  GI50: 2940 nM
[1]; average over Ovarian Cancer panel
  GI50: 2600 nM
A-498; Renal Cancer, A-498, 48 h drug incubation, read-out: GI50
  GI50: 3640 nM
PC-3; Prostate Cancer, PC-3, 48 h drug incubation, read-out: GI50
  GI50: 2100 nM
UACC-257; Melanoma, UACC-257, 48 h drug incubation, read-out: GI50
  GI50: 2420 nM
OVCAR-4; Ovarian Cancer, OVCAR-4, 48 h drug incubation, read-out: GI50
  GI50: 2540 nM
SK-OV-3; Ovarian Cancer, SK-OV-3, 48 h drug incubation, read-out: GI50
  GI50: 2590 nM
786-0; Renal Cancer, 786-0, 48 h drug incubation, read-out: GI50
  GI50: 2760 nM
CCRF-CEM; Leukemia, 48 h drug incubation, read-out: GI50
  GI50: 2780 nM
LOX IMVI; Melanoma, 48 h drug incubation, read-out: GI50
  GI50: 1850 nM
SN12C; [4]
  GI50: 1710 nM
